Experimental data from publication PMC3764405, “Synthesis and evaluation of a ^125I-labeled iminodihydroquinoline-derived tracer for imaging of voltage-gated sodium channels^” (Bioorganic & Medicinal Chemistry Letters, 2013).

Molecular target: T1, human Nav1.2 isoform (hNav1.2) (Homo sapiens, UniProt Q99250)
T1 construct: gene SCN2A
Assay: automated patch clamp, CHO cells transfected with hNav1.[…]
Type: cell-based

T1 sequence (Q99250 whole entry, canonical isoform): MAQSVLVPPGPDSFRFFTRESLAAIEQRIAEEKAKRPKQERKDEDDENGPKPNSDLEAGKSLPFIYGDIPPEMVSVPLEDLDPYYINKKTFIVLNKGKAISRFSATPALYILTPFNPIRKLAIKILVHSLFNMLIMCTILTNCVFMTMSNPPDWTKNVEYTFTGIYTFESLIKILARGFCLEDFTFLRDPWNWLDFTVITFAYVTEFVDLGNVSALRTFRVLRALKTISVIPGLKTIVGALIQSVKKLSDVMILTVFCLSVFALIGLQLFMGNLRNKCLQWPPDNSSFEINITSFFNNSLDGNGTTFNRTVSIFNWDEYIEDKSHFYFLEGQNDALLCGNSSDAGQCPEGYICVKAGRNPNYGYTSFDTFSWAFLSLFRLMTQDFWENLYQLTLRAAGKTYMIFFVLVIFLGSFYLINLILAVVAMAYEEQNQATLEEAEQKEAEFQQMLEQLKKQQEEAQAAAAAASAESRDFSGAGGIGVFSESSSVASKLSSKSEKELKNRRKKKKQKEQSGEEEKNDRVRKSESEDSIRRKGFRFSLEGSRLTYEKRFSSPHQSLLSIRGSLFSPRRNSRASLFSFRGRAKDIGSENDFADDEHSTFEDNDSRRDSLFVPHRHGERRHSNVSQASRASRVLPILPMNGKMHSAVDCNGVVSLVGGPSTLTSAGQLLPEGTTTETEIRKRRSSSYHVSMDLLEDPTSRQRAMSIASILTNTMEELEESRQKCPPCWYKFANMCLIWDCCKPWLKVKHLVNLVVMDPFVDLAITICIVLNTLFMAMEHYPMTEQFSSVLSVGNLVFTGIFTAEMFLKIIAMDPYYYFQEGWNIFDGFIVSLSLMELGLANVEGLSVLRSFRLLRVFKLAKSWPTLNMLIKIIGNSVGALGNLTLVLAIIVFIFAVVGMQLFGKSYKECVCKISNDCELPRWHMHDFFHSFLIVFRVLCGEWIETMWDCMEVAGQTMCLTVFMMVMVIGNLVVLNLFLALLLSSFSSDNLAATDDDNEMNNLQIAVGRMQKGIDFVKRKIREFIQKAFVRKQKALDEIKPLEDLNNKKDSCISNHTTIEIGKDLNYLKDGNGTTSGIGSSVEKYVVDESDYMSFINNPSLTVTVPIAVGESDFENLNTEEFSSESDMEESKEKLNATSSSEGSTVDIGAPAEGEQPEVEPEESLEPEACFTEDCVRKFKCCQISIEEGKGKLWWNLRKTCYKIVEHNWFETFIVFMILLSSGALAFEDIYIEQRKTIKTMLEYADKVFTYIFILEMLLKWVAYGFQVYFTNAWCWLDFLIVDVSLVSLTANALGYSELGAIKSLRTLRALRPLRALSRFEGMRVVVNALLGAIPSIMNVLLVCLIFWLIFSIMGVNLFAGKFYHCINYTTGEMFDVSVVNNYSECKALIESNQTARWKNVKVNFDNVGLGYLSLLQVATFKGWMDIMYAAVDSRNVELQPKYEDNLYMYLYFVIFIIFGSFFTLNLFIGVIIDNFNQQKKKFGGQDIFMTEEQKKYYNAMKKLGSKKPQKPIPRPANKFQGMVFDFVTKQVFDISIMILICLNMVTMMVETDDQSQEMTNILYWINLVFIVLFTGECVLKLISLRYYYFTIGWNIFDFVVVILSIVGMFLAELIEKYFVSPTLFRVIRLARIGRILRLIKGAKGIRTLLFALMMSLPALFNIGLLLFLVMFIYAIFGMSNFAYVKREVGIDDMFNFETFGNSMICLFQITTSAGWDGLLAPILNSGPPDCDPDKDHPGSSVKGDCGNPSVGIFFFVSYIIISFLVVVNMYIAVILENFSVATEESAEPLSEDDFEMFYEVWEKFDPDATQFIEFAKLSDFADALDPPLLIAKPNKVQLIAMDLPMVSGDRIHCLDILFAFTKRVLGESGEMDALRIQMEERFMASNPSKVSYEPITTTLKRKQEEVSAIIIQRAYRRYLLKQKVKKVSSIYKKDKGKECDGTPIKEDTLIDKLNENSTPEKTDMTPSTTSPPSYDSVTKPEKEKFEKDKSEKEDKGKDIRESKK

Structure (SMILES)	IC50
CCCCCN=c1ccn(Cc2ccccc2)c2cc(Cl)ccc12 [WIN17317-3]	2200 ± 1200 nM
CCCCCN=c1ccn(Cc2ccccc2)c2cc(I)ccc12 [compound 10, 10]	1500 ± 500 nM
